± gives the expanded uncertainty stated by the source.
Settings: 101.33 kPa, Liquid

CCC1COC(=O)O1 (configuration not stated) [1,2-butylene carbonate]
Settings | mass density [kg/m3]
283 K | 1155.2 ± 0.4
293.1 K | 1146.6 ± 0.4
295.1 K | 1144.9 ± 0.4
297.1 K | 1143.3 ± 0.4
299.1 K | 1141.7 ± 0.4
301.1 K | 1140.1 ± 0.4
303.1 K | 1138.6 ± 0.4
